This assay deals with T1, human CRHR2-alpha (Homo sapiens, UniProt Q13324).
T1 sequence (Q13324 1-411): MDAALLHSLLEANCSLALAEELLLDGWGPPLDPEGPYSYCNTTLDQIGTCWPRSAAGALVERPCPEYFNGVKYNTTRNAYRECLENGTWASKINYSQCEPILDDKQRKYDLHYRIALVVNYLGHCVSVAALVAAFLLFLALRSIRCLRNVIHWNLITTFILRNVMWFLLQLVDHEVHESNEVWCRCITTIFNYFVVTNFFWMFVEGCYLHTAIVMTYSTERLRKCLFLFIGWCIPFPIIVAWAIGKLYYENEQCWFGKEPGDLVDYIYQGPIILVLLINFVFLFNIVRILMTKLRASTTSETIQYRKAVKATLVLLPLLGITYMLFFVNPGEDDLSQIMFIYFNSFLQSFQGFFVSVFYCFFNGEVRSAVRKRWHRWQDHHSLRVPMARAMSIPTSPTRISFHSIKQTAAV
The experiment in a line: cAMP functional assay for human CRHR2 (LANCE Ultra cAMP, TR-FRET). The class given is cell-based. As to conditions: CHO-K1 cells expressing human CRHR2-alpha, agonist human urocortin2 at EC80, cAMP; read-out: IC50 against CRHR2. The gist of the method: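 CHO-K1 cells stably expressing each receptor, serum-starved and cryopreserved, were preincubated with compound 30 min at 25° C in HBSS buffer with 0.5 mM IBMX, pH 7.4, then stimulated 30 min with EC80 agonist (urocortin2 for CRHR2, CRF for CRHR1). cAMP read by TR-FRET; IC50 from percent-inhibition curves.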
Background: TR-FRET usually uses a lanthanide donor and a delayed reading to cut background.
The term IC50 denotes the concentration needed to halve the response being measured. For the compound `Cn1cc2c(-n3c(=O)n(C[C@H]4CC[C@H](NC(=O)c5cc(Cl)cnc5C(F)F)CC4)c4ccccc43)cccc2n1` [Example 421, 5-chloro-2-(difluoromethyl)-N-((1r,4r)-4-((3-(2-methyl-2H-indazol-4-yl)-2-oxo-2,3-dihydro-1H-benzo[d]imidazol-1-yl)methyl)cyclohexyl)nicotinamide], the 50% inhibitory concentration (IC50) was less than 300 nM.
For `Cc1ncc(Cl)cc1C(=O)N[C@H]1CC[C@H](Cn2c(=O)n(-c3ccc(NC(C)C)nc3)c3ccccc32)CC1` [Example 460, 5-chloro-N-((1r,4r)-4-((3-(6-(isopropylamino)pyridin-3-yl)-2-oxo-2,3-dihydro-1H-benzo[d]imidazol-1-yl)methyl)cyclohexyl)-2-methylnicotinamide], the IC50 was less than 300 nM.
As for `Cc1ncc(Cl)cc1C(=O)N[C@H]1CC[C@H](Cn2c(=O)n(CC(=O)c3ccccc3)c3ccccc32)CC1` [Example 5, 5-chloro-2-methyl-N-((1r,4r)-4-((2-oxo-3-(2-oxo-2-phenylethyl)-2,3-dihydro-1H-benzo[d]imidazol-1-yl)methyl)cyclohexyl)nicotinamide], the IC50 is less than 300 nM.
The result for `CNC(=O)c1ccc(-n2c(=O)n(C[C@H]3CC[C@H](NC(=O)c4cc(Cl)cnc4COC)CC3)c3ccccc32)cn1` [Example 335, 5-(3-(((1r,4r)-4-(5-chloro-2-(methoxymethyl)nico-tinamido)cyclohexyl)methyl)-2-oxo-2,3-dihydro-1H-benzo[d]imidazol-1-yl)-N-methylpicolinamide] reads less than 300 nM.
In the case of `O=C(N[C@H]1CC[C@H](Cn2c(=O)n(-c3cnc4ccccc4c3)c3ccccc32)CC1)c1cc(Cl)cnc1C(F)(F)F` [Example 352, 5-chloro-N-((1r,4r)-4-((2-oxo-3-(quinolin-3-yl)-2,3-dihydro-1H-benzo[d]imidazol-1-yl)methyl)cyclo-hexyl)-2-(trifluoromethyl) nicotinamide], the IC50 was less than 300 nM.
For the compound `Cc1ncc(Cl)cc1C(=O)N[C@H]1CC[C@H](Cn2c(=O)n(-c3ccc4[nH]nc(-c5ccccc5)c4c3)c3ccccc32)CC1` [Example 348, 5-chloro-2-methyl-N-((1r,4r)-4-((2-oxo-3-(3-phenyl-1H-indazol-5-yl)-2,3-dihydro-1H-benzo[d]imidazol-1-yl)methyl)cyclohexyl)nicotinamide], the half-maximal inhibitory concentration (IC50) was less than 300 nM.
Turning to `Cc1ncc(Cl)cc1C(=O)N[C@H]1CC[C@H](Cn2c(=O)n(-c3ccnc4ccccc34)c3ccccc32)CC1` [Example 370, 5-chloro-2-methyl-N-((1r,4r)-4-((2-oxo-3-(quinolin-4-yl)-2,3-dihydro-1H-benzo[d]imi-dazol-1-yl)methyl)cyclohexyl) nicotinamide], the concentration for half-maximal inhibition (IC50) is less than 300 nM.
Take `C[C@H](O)COc1ccc(-n2c(=O)n(C[C@H]3CC[C@H](NC(=O)c4cc(Cl)cnc4C(F)F)CC3)c3ccccc32)cn1` [Example 440, 5-chloro-2-(difluoromethyl)-N-((1S,4r)-4-((3-(6-((S)-2-hydroxypropoxy)pyridin-3-yl)-2-oxo-2,3-dihydro-1H-benzo[d]imidazol-1-yl)methyl)cyclohexyl)nicotinamide]: the IC50 was less than 300 nM.
For `COc1ccc(-n2c(=O)n(C[C@H]3CC[C@H](NC(=O)c4cc(Cl)ccc4C)CC3)c3ccccc32)cn1` [Example 223, 5-chloro-N-((1r,4r)-4-((3-(6-methoxypyridin-3-yl)-2-oxo-2,3-dihydro-1H-benzo[d]imidazol-1-yl)methyl)cyclo-hexyl)-2-methylbenzamide], the IC50 was less than 300 nM.
Regarding `Cc1ncc(Cl)cc1C(=O)N[C@H]1CC[C@H](Cn2c(=O)n(-c3cccc(N(C)C)c3C#N)c3ccccc32)CC1` [Example 309, 5-choro-N-((1r,4r)-4-((3-(2-cyano-3-(dimethylamino)phenyl)-2-oxo-2,3-dihydro-1H-benzo[d]imidazol-1-yl)methyl)cyclohexyl)-2-methylnicotinamide], the IC50 is less than 300 nM.
With `CNC(=O)c1ccc(-n2c(=O)n(C[C@H]3CC[C@H](NC(=O)c4cc(Cl)cnc4C)CC3)c3cc(C)ccc32)cn1` [Example 225, 5-(3-(((1r,4r)-4-(5-chloro-2-methylnicotinamido)cyclo-hexyl)methyl)-5-methyl-2-oxo-2,3-dihydro-1H-benzo [d]imidazol-1-yl)-N-methylpicolinamide], the IC50 is less than 300 nM.
The result for `COCOCCn1nc(C)c2cc(-n3c(=O)n(C[C@H]4CC[C@H](NC(=O)c5cc(Cl)cnc5C)CC4)c4ccccc43)ccc21` [Example 229, 5-chloro-N-((1r,4r)-4-((3-(1-(2-(methoxymethoxy)ethyl)-3-methyl-1H-indazol-5-yl)-2-oxo-2,3-dihydro-1H-benzo[d]imidazol-1-yl)methyl)cyclo-hexyl)-2-methylnicotinamide] reads less than 300 nM.
For the compound `N#Cc1ccncc1-n1c(=O)n(C[C@H]2CC[C@H](NC(=O)c3cc(Cl)cnc3C(F)(F)F)CC2)c2ccccc21` [Example 311, 5-chloro-N-((1r,4r)-4-((3-(4-cyanopyridin-3-yl)-2-oxo-2,3-dihydro-1H-benzo[d]imidazol-1-yl)methyl)cyclo-hexyl)-2-(trifluoromethyl) nicotinamide], the IC50 is less than 300 nM.
As for `CNC(=O)c1ncc(-n2c(=O)n(C[C@H]3CC[C@H](NC(=O)c4cc(Cl)cnc4C(F)F)CC3)c3ccccc32)cc1Cl` [Example 555, 3-chloro-5-(3-(((1r,4r)-4-(5-chloro-2-(difluoromethyl)nicotinamido)cyclohexyl)methyl)-2-oxo-2,3-dihydro-1H-benzo[d]imidazol-1-yl)-N-methylpicolinamide], the IC50 is less than 300 nM.
Consider `Cc1c[nH]c2ncc(-n3c(=O)n(C[C@H]4CC[C@H](NC(=O)c5cc(Cl)cnc5C(F)F)CC4)c4cccnc43)cc12` [Example 474, 5-chloro-2-(difluoromethyl)-N-((1r,4r)-4-((3-(3-methyl-1H-pyrrolo[2,3-b]pyridin-5-yl)-2-oxo-2,3-dihydro-1H-imidazo[4,5-b]pyridin-1-yl)methyl)cyclohexyl)nicotinamide], for which the IC50 was less than 300 nM.
Consider `O=C(N[C@H]1CC[C@H](Cn2c(=O)n(-c3ccc4ncsc4c3)c3ncccc32)CC1)c1cc(Cl)cnc1C(F)F` [Example 387, N-((1r,4r)-4-((3-(benzo[d]thiazol-6-yl)-2-oxo-2,3-dihydro-1H-imidazo[4,5-b]pyridin-1-yl)methyl)cyclo-hexyl)-5-chloro-2-(difluoro-methyl)nicotinamide], for which the half-inhibitory concentration (IC50) was less than 300 nM.
In the case of `O=C(N[C@H]1CC[C@H](Cn2c(=O)n(-c3ccc(NCCO)cn3)c3ccccc32)CC1)c1cc(Cl)cnc1C(F)F` [Example 715, 5-chloro-2-(difluoromethyl)-N-((1r,4r)-4-((3-(5-((2-hydroxyethyl)amino)pyridin-2-yl)-2-oxo-2,3-dihydro-1H-benzo[d]imidazol-1-yl)methyl)cyclohexyl)nicotinamide], the IC50 was less than 300 nM.
The result for `Cc1ncc(Cl)cc1C(=O)N[C@H]1CC[C@H](Cn2c(=O)n(-c3ccc(-c4cnn(C)c4)cc3)c3ccccc32)CC1` [Example 579, 5-chloro-2-methyl-N-((1r,4r)-4-((3-(4-(1-methyl-1H-pyrazol-4-yl)phenyl)-2-oxo-2,3-dihydro-1H-benzo[d]imidazol-1-yl)methyl)cyclo-hexyl)nicotinamide] reads less than 300 nM.

The values are drawn from patent US11802120B2, “Fused cyclic urea derivatives as CRHR2 antagonist” (RaQualia Pharma Inc., priority 2018, dated 2023).
